From ChEMBL document CHEMBL6127076, “Scaffold hopping-driven optimization for the identification of NLRP3 inhibitors as potential gout therapeutics” (Eur J Med Chem, 2024)
Values after ≈ are worked out from the molar mass of the structure shown. Active and inactive are the calls of the source.

Tested on: THP-1-M
Assay: Effect on mitochondrial damage in Nigericin-induced human THP-1-M cells by MitoTracker staining based confocal microscopic analysis
Assay type: functional, cell-based
Settings: not given

SMILES	Activity
CC1(C)C(=O)N(c2ccc(C(F)(F)F)cc2)C(=S)N1Cc1ccc(S(N)(=O)=O)c(F)c1	inactive

Tested on: not listed separately
Assay: Plasma stability in human plasma assessed as compound remaining measured after 120 mins
Assay type: ADME, cell-free
Settings: read-out: Stability

SMILES	remaining at 2 h [%]
COc1ccc(N2C(=O)/C(=C/c3ccccc3C(F)(F)F)SC2=S)cc1	3.67
CC1(C)C(=O)N(c2ccc(C(F)(F)F)cc2)C(=S)N1Cc1ccc(S(N)(=O)=O)c(F)c1	96.9

Tested on: THP-1-M
Assay: Effect on ROS generation in Nigericin-induced human THP-1-M cells assessed as effect on increase in ROS generation by MitoSOX staining based confocal microscopic analysis
Assay type: functional, cell-based
Settings: not given

SMILES	Activity
CC1(C)C(=O)N(c2ccc(C(F)(F)F)cc2)C(=S)N1Cc1ccc(S(N)(=O)=O)c(F)c1	inactive

Tested on: BMDM
Assay: Effect on pro-caspase 1 expression in Nigericin-induced in C57BL/6J mouse BMDM cells at 3 to 30 uM by immunoblotting analysis
Assay type: functional, cell-based
Settings: dose 3-30 µM

SMILES	Activity
CC1(C)C(=O)N(c2ccc(C(F)(F)F)cc2)C(=S)N1Cc1ccc(S(N)(=O)=O)c(F)c1	inactive

Biological target: T1, Cytochrome P450 3A4 (Homo sapiens, UniProt P08684)
Assay: Inhibition of CYP3A4 (unknown origin) using midazolam as substrate
Assay type: ADME
Settings: not given

T1 sequence (P08684 whole entry): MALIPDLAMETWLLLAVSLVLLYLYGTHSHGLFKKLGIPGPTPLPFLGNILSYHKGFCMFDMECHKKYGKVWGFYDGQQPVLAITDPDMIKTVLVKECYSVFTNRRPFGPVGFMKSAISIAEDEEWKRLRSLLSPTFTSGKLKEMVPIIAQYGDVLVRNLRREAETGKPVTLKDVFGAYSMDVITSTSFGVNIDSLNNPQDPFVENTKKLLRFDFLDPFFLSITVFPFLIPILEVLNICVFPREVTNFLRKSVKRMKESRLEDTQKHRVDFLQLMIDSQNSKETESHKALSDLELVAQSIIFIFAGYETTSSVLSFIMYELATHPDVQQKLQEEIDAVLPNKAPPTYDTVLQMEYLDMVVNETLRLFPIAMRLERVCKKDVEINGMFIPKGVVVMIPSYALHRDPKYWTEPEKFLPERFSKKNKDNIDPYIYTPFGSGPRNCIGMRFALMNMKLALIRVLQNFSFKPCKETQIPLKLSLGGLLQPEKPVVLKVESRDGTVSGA

SMILES	IC50 [µM]
COc1ccc(N2C(=O)/C(=C/c3ccccc3C(F)(F)F)SC2=S)cc1	> 10
CC1(C)C(=O)N(c2ccc(C(F)(F)F)cc2)C(=S)N1Cc1ccc(S(N)(=O)=O)c(F)c1	> 10

Tested on: not listed separately
Assay: Plasma stability in human plasma assessed as compound remaining measured immediately
Assay type: ADME, cell-free
Settings: read-out: Stability

SMILES	remaining at 0 min [%]
COc1ccc(N2C(=O)/C(=C/c3ccccc3C(F)(F)F)SC2=S)cc1	100
CC1(C)C(=O)N(c2ccc(C(F)(F)F)cc2)C(=S)N1Cc1ccc(S(N)(=O)=O)c(F)c1	100

Tested on: BMDM
Assay: Effect on NLPR3 expression in Nigericin-induced in C57BL/6J mouse BMDM cells at 3 to 30 uM by immunoblotting analysis
Assay type: functional, cell-based
Settings: dose 3-30 µM

SMILES	Activity
CC1(C)C(=O)N(c2ccc(C(F)(F)F)cc2)C(=S)N1Cc1ccc(S(N)(=O)=O)c(F)c1	inactive

Tested on: not listed separately
Assay: Plasma stability in human plasma assessed as compound remaining measured after 15 mins
Assay type: ADME, cell-free
Settings: read-out: Stability

SMILES	remaining at 0.25 h [%]
COc1ccc(N2C(=O)/C(=C/c3ccccc3C(F)(F)F)SC2=S)cc1	106
CC1(C)C(=O)N(c2ccc(C(F)(F)F)cc2)C(=S)N1Cc1ccc(S(N)(=O)=O)c(F)c1	99.5

Tested on: Mus musculus
Assay: Anti-arthritis activity against MSU-induced arthritis mouse model assessed as decrease in von Frey pain threshold treated by gavage 30 mins before MSU induction measured for day 3 to day 7
Assay type: functional, organism-based
Settings: dose 5-30 mg/kg, route po, time 3-7 day

SMILES	Activity
CC1(C)C(=O)N(c2ccc(C(F)(F)F)cc2)C(=S)N1Cc1ccc(S(N)(=O)=O)c(F)c1	Dose-Dependent Effect

Tested on: BMDM
Assay: Effect on pro-IL-1beta expression in Nigericin-induced in C57BL/6J mouse BMDM cells at 3 to 30 uM by immunoblotting analysis
Assay type: functional, cell-based
Settings: dose 3-30 µM

SMILES	Activity
CC1(C)C(=O)N(c2ccc(C(F)(F)F)cc2)C(=S)N1Cc1ccc(S(N)(=O)=O)c(F)c1	inactive

Tested on: Mus musculus
Assay: Anti-arthritis activity against MSU-induced arthritis mouse model assessed as decrease in decrease in swelling in joint treated by gavage 30 mins before MSU induction measured for 7 days
Assay type: functional, organism-based
Settings: dose 5-30 mg/kg, route po, time 7.0 day

SMILES	Activity
CC1(C)C(=O)N(c2ccc(C(F)(F)F)cc2)C(=S)N1Cc1ccc(S(N)(=O)=O)c(F)c1	Dose-Dependent Effect

Tested on: BMDM
Assay: Effect on ASC expression in Nigericin-induced in C57BL/6J mouse BMDM cells at 3 to 30 uM by immunoblotting analysis
Assay type: functional, cell-based
Settings: dose 3-30 µM

SMILES	Activity
CC1(C)C(=O)N(c2ccc(C(F)(F)F)cc2)C(=S)N1Cc1ccc(S(N)(=O)=O)c(F)c1	inactive

Tested on: not listed separately
Assay: Aqueous solubility of the compound in pH 7.4 PBS buffer
Assay type: physicochemical
Settings: not given

SMILES	solubility [µM]
COc1ccc(N2C(=O)/C(=C/c3ccccc3C(F)(F)F)SC2=S)cc1	0.012 (≈ 0.00475 µg/mL)
CC1(C)C(=O)N(c2ccc(C(F)(F)F)cc2)C(=S)N1Cc1ccc(S(N)(=O)=O)c(F)c1	53.7 (≈ 25.5 µg/mL)

Biological target: T2, Cytochrome P450 1A2 (Homo sapiens, UniProt P05177)
T2 sequence (P05177 whole entry): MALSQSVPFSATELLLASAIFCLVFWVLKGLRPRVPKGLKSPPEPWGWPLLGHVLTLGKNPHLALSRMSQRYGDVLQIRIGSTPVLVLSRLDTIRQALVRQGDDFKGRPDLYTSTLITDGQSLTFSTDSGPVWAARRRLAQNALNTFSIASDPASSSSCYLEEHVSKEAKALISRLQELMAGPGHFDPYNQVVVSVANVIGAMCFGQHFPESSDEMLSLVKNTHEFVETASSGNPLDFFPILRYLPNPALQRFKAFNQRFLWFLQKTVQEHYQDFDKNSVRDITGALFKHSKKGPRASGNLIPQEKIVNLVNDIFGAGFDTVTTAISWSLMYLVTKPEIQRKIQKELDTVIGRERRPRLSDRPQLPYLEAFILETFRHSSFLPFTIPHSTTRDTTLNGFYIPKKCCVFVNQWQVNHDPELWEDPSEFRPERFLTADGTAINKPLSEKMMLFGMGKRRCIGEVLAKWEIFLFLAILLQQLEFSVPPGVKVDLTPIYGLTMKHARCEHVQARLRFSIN
Assay: Inhibition of CYP1A2 (unknown origin)
Assay type: ADME
Settings: not given

SMILES	IC50 [µM]
COc1ccc(N2C(=O)/C(=C/c3ccccc3C(F)(F)F)SC2=S)cc1	5.2
CC1(C)C(=O)N(c2ccc(C(F)(F)F)cc2)C(=S)N1Cc1ccc(S(N)(=O)=O)c(F)c1	> 100

Tested on: not listed separately
Assay: Plasma stability in human plasma assessed as compound remaining measured after 5 mins
Assay type: ADME, cell-free
Settings: read-out: Stability

SMILES	remaining at 5 min [%]
COc1ccc(N2C(=O)/C(=C/c3ccccc3C(F)(F)F)SC2=S)cc1	112
CC1(C)C(=O)N(c2ccc(C(F)(F)F)cc2)C(=S)N1Cc1ccc(S(N)(=O)=O)c(F)c1	100

Tested on: BMDM
Assay: Effect on NEK7 expression in Nigericin-induced in C57BL/6J mouse BMDM cells at 3 to 30 uM by immunoblotting analysis
Assay type: functional, cell-based
Settings: dose 3-30 µM

SMILES	Activity
CC1(C)C(=O)N(c2ccc(C(F)(F)F)cc2)C(=S)N1Cc1ccc(S(N)(=O)=O)c(F)c1	inactive

Biological target: Cytochrome P450 2C19 (Homo sapiens, UniProt P33261)
Assay: Inhibition of CYP2C19 (unknown origin)
Assay type: ADME
Settings: not given

Sequence of Cytochrome P450 2C19 (P33261 whole entry): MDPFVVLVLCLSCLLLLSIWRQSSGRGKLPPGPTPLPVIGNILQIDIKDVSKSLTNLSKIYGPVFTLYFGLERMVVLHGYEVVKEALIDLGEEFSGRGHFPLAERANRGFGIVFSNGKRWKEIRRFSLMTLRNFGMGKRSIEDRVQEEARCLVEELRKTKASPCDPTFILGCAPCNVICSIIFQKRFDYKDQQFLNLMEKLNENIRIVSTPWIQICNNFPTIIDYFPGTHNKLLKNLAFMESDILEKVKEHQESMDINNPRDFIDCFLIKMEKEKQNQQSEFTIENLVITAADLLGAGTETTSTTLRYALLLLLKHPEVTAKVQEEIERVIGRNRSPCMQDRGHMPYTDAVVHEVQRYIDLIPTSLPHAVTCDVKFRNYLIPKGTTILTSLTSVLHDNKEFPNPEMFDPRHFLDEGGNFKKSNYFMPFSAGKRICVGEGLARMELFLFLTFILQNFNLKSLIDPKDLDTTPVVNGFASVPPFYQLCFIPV

SMILES	IC50 [µM]
COc1ccc(N2C(=O)/C(=C/c3ccccc3C(F)(F)F)SC2=S)cc1	6.87
CC1(C)C(=O)N(c2ccc(C(F)(F)F)cc2)C(=S)N1Cc1ccc(S(N)(=O)=O)c(F)c1	> 10

Tested on: not listed separately
Assay: Inhibition of NLRP3 inflammasome pathway in human THP-1 cells assessed as inhibition of LPS/MSU-induced IL-1beta secretion
Settings: not given

SMILES	IC50 [µM]
CC1(C)C(=O)N(c2ccc(C(F)(F)F)cc2)C(=S)N1Cc1ccc(S(N)(=O)=O)c(F)c1	4.8

Biological target: Cytochrome P450 2C9 (Homo sapiens, UniProt P11712)
Assay: Inhibition of CYP2C9 (unknown origin)
Assay type: ADME
Settings: not given

Sequence of Cytochrome P450 2C9 (P11712 whole entry): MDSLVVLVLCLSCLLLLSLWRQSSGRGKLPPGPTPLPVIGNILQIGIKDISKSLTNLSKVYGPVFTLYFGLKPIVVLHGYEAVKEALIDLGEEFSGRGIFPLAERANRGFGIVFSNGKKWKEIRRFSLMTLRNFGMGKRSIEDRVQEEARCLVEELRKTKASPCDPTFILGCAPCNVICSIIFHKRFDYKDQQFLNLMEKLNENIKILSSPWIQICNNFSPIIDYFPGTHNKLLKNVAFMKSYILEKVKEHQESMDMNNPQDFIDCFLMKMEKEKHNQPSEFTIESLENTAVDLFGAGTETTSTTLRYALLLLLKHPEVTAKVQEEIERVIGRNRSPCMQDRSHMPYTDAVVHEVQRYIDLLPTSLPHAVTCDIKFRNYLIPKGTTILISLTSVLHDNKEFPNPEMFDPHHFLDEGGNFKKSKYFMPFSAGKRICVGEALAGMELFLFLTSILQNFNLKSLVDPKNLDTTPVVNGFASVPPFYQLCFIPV

SMILES	IC50 [µM]
COc1ccc(N2C(=O)/C(=C/c3ccccc3C(F)(F)F)SC2=S)cc1	4.65
CC1(C)C(=O)N(c2ccc(C(F)(F)F)cc2)C(=S)N1Cc1ccc(S(N)(=O)=O)c(F)c1	> 10

Tested on: not listed separately
Assay: Plasma stability in human plasma assessed as compound remaining measured after 30 mins
Assay type: ADME, cell-free
Settings: read-out: Stability

SMILES	remaining at 0.5 h [%]
COc1ccc(N2C(=O)/C(=C/c3ccccc3C(F)(F)F)SC2=S)cc1	23.9
CC1(C)C(=O)N(c2ccc(C(F)(F)F)cc2)C(=S)N1Cc1ccc(S(N)(=O)=O)c(F)c1	104

Tested on: not listed separately
Assay: Plasma stability in human plasma assessed as compound remaining measured after 60 mins
Assay type: ADME, cell-free
Settings: read-out: Stability

SMILES	remaining at 1 h [%]
COc1ccc(N2C(=O)/C(=C/c3ccccc3C(F)(F)F)SC2=S)cc1	4.34
CC1(C)C(=O)N(c2ccc(C(F)(F)F)cc2)C(=S)N1Cc1ccc(S(N)(=O)=O)c(F)c1	103

Biological target: Cytochrome P450 2D6 (Homo sapiens, UniProt P10635)
Assay: Inhibition of CYP2D6 (unknown origin)
Assay type: ADME
Settings: not given

Sequence of Cytochrome P450 2D6 (P10635 whole entry): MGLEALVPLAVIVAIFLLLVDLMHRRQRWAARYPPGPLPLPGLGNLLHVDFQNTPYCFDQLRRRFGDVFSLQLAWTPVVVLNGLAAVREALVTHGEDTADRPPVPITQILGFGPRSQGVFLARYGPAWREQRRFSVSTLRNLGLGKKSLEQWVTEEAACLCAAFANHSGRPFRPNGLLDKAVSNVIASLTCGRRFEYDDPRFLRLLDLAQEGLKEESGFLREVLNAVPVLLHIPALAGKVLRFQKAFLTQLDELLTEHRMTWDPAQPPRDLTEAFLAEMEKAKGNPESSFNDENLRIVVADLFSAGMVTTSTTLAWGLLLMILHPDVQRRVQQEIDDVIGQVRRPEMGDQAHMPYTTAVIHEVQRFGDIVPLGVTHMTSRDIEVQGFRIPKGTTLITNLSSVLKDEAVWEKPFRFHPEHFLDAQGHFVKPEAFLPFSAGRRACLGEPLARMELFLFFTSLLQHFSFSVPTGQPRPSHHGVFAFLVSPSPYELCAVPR

SMILES	IC50 [µM]
COc1ccc(N2C(=O)/C(=C/c3ccccc3C(F)(F)F)SC2=S)cc1	> 10
CC1(C)C(=O)N(c2ccc(C(F)(F)F)cc2)C(=S)N1Cc1ccc(S(N)(=O)=O)c(F)c1	> 10

Tested on: HEK-293T
Assay: Cytotoxicity against human HEK293T cells assessed as cell viability at 0.39 to 50 uM measured after 24 hrs by CCK8 assay
Assay type: toxicity, cell-based
Settings: dose 0.39-50 µM

SMILES	Activity
CC1(C)C(=O)N(c2ccc(C(F)(F)F)cc2)C(=S)N1Cc1ccc(S(N)(=O)=O)c(F)c1	Non-Toxic

Tested on: Mus musculus
Assay: Anti-inflammatory activity against MSU-induced peritonitis mouse model assessed as reduction in IL-1beta secretion in peritoneal cavity treated by gavage 30 mins before MSU induction measured after 6 hrs modeling by ELISA
Assay type: functional, organism-based
Settings: dose 5-30 mg/kg, route po

SMILES	Activity
CC1(C)C(=O)N(c2ccc(C(F)(F)F)cc2)C(=S)N1Cc1ccc(S(N)(=O)=O)c(F)c1	Dose-Dependent Effect

Tested on: not listed separately
Assay: Plasma stability in human plasma assessed as half life
Assay type: ADME, cell-free
Settings: not given

SMILES	half-life [min]
COc1ccc(N2C(=O)/C(=C/c3ccccc3C(F)(F)F)SC2=S)cc1	20.3

Tested on: Mus musculus
Assay: Anti-inflammatory activity against MSU-induced peritonitis mouse model assessed as reduction in IL-1beta secretion in peritoneal cavity at 30 mg/kg, treated by gavage 30 mins before MSU induction measured after 6 hrs modeling by ELISA
Assay type: functional, organism-based
Settings: route po

SMILES	Activity
CC1(C)C(=O)N(c2ccc(C(F)(F)F)cc2)C(=S)N1Cc1ccc(S(N)(=O)=O)c(F)c1	Active

Biological target: T1, Cytochrome P450 3A4
Assay: Inhibition of CYP3A4 (unknown origin) using testosterone as substrate
Assay type: ADME
Settings: not given

SMILES	IC50 [µM]
COc1ccc(N2C(=O)/C(=C/c3ccccc3C(F)(F)F)SC2=S)cc1	> 10
CC1(C)C(=O)N(c2ccc(C(F)(F)F)cc2)C(=S)N1Cc1ccc(S(N)(=O)=O)c(F)c1	> 10
